From PubChem BioAssay (NCI)
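Dose response: 5 concentrations. Exposure: 48 h. Format: 96-well plates. Endpoint: linear interpolation; highest concentration if not reached. TGI denotes the concentration required for complete inhibition of growth.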

Assays:
Test in all cases: NCI anticancer screen, dose series, 48 h
786-0 renal = system: 786-0 renal
A498 renal = system: A498 renal
A549 NSCLC = system: A549 NSCLC
ACHN renal = system: ACHN renal
BT-549 breast = system: BT-549 breast
CAKI-1 renal = system: CAKI-1 renal
CCRF-CEM leukemia = system: CCRF-CEM leukemia
COLO 205 colon = system: COLO 205 colon
DU-145 prostate = system: DU-145 prostate
EKVX NSCLC = system: EKVX NSCLC
HCC-2998 colon = system: HCC-2998 colon
HCT-116 colon = system: HCT-116 colon
HCT-15 colon = system: HCT-15 colon
HL-60(TB) leukemia = system: HL-60(TB) leukemia
HOP-62 NSCLC = system: HOP-62 NSCLC
HOP-92 NSCLC = system: HOP-92 NSCLC
HS 578T breast = system: HS 578T breast
HT29 colon = system: HT29 colon
IGROV1 ovarian = system: IGROV1 ovarian
K-562 leukemia = system: K-562 leukemia
KM12 colon = system: KM12 colon
LOX IMVI melanoma = system: LOX IMVI melanoma
M14 melanoma = system: M14 melanoma
MALME-3M melanoma = system: MALME-3M melanoma
MCF7 breast = system: MCF7 breast
MDA-MB-231 breast = system: MDA-MB-231 breast
MDA-MB-435 = system: MDA-MB-435
MDA-N = system: MDA-N
MOLT-4 leukemia = system: MOLT-4 leukemia
NCI-H226 lung = system: NCI-H226 lung
NCI-H23 lung = system: NCI-H23 lung
NCI-H460 lung = system: NCI-H460 lung
NCI-H522 lung = system: NCI-H522 lung
NCI/ADR-RES ovarian = system: NCI/ADR-RES ovarian
OVCAR-3 ovarian = system: OVCAR-3 ovarian
OVCAR-4 ovarian = system: OVCAR-4 ovarian
OVCAR-5 ovarian = system: OVCAR-5 ovarian
OVCAR-8 ovarian = system: OVCAR-8 ovarian
PC-3 prostate = system: PC-3 prostate
RPMI-8226 leukemia = system: RPMI-8226 leukemia
RXF 393 renal = system: RXF 393 renal
SF-268 CNS = system: SF-268 CNS
SF-295 CNS = system: SF-295 CNS
SF-539 CNS = system: SF-539 CNS
SK-MEL-2 melanoma = system: SK-MEL-2 melanoma
SK-MEL-28 melanoma = system: SK-MEL-28 melanoma
SK-MEL-5 melanoma = system: SK-MEL-5 melanoma
SK-OV-3 ovarian = system: SK-OV-3 ovarian
SN12C renal = system: SN12C renal
SNB-19 CNS = system: SNB-19 CNS
SNB-75 CNS = system: SNB-75 CNS
SR leukemia = system: SR leukemia
SW-620 colon = system: SW-620 colon
T-47D breast = system: T-47D breast
TK-10 renal = system: TK-10 renal
U251 CNS = system: U251 CNS
UACC-257 melanoma = system: UACC-257 melanoma
UACC-62 melanoma = system: UACC-62 melanoma
UO-31 renal = system: UO-31 renal

O=C1c2c(ccc3c2CCCC3)CC12Cc1ccccc1C2
TGI (786-0 renal): > 100 µM | TGI (A498 renal): 77.5 µM | TGI (A549 NSCLC): > 92.6 µM | TGI (ACHN renal): 97.1 µM | TGI (BT-549 breast): > 100 µM | TGI (CAKI-1 renal): > 77.7 µM | TGI (CCRF-CEM leukemia): 27 µM | TGI (COLO 205 colon): 65.2 µM | TGI (DU-145 prostate): > 100 µM | TGI (EKVX NSCLC): > 95.9 µM | TGI (HCC-2998 colon): > 74.8 µM | TGI (HCT-116 colon): 26.1 µM | TGI (HCT-15 colon): > 49.8 µM | TGI (HL-60(TB) leukemia): 38.8 µM | TGI (HOP-62 NSCLC): > 100 µM | TGI (HOP-92 NSCLC): 51.7 µM | TGI (HS 578T breast): > 100 µM | TGI (HT29 colon): > 57.1 µM | TGI (IGROV1 ovarian): > 100 µM | TGI (K-562 leukemia): > 48.2 µM | TGI (KM12 colon): 59.9 µM | TGI (LOX IMVI melanoma): 29.4 µM | TGI (M14 melanoma): > 100 µM | TGI (MALME-3M melanoma): 34.9 µM | TGI (MCF7 breast): > 76.6 µM | TGI (MDA-MB-231 breast): 52.7 µM | TGI (MDA-MB-435): > 100 µM | TGI (MDA-N): > 100 µM | TGI (MOLT-4 leukemia): > 35.4 µM | TGI (NCI-H226 lung): 71.7 µM | TGI (NCI-H23 lung): > 96.2 µM | TGI (NCI-H460 lung): > 47.1 µM | TGI (NCI-H522 lung): 56.7 µM | TGI (NCI/ADR-RES ovarian): > 100 µM | TGI (OVCAR-3 ovarian): 48.9 µM | TGI (OVCAR-4 ovarian): > 100 µM | TGI (OVCAR-5 ovarian): > 67.6 µM | TGI (OVCAR-8 ovarian): > 100 µM | TGI (PC-3 prostate): > 100 µM | TGI (RPMI-8226 leukemia): 45.5 µM | TGI (RXF 393 renal): 46.2 µM | TGI (SF-268 CNS): > 100 µM | TGI (SF-295 CNS): > 100 µM | TGI (SF-539 CNS): > 75.3 µM | TGI (SK-MEL-2 melanoma): 39.6 µM | TGI (SK-MEL-28 melanoma): > 80.4 µM | TGI (SK-MEL-5 melanoma): 22.3 µM | TGI (SK-OV-3 ovarian): > 100 µM | TGI (SN12C renal): > 100 µM | TGI (SNB-19 CNS): > 100 µM | TGI (SNB-75 CNS): > 100 µM | TGI (SR leukemia): > 27.6 µM | TGI (SW-620 colon): > 100 µM | TGI (T-47D breast): > 100 µM | TGI (TK-10 renal): > 100 µM | TGI (U251 CNS): > 100 µM | TGI (UACC-257 melanoma): 54 µM | TGI (UACC-62 melanoma): > 100 µM | TGI (UO-31 renal): 68.5 µM

CCOc1c(OC)cc(CNNc2nccs2)cc1OC
TGI (786-0 renal): > 100 µM | TGI (A498 renal): > 100 µM | TGI (A549 NSCLC): > 100 µM | TGI (ACHN renal): > 100 µM | TGI (BT-549 breast): > 100 µM | TGI (CAKI-1 renal): > 100 µM | TGI (CCRF-CEM leukemia): > 100 µM | TGI (COLO 205 colon): > 100 µM | TGI (DU-145 prostate): > 100 µM | TGI (EKVX NSCLC): > 100 µM | TGI (HCC-2998 colon): > 100 µM | TGI (HCT-116 colon): > 100 µM | TGI (HCT-15 colon): > 100 µM | TGI (HL-60(TB) leukemia): > 100 µM | TGI (HOP-62 NSCLC): > 100 µM | TGI (HOP-92 NSCLC): > 100 µM | TGI (HS 578T breast): > 100 µM | TGI (HT29 colon): > 100 µM | TGI (IGROV1 ovarian): > 100 µM | TGI (K-562 leukemia): > 100 µM | TGI (KM12 colon): > 100 µM | TGI (LOX IMVI melanoma): > 100 µM | TGI (M14 melanoma): > 100 µM | TGI (MALME-3M melanoma): > 100 µM | TGI (MCF7 breast): > 100 µM | TGI (MDA-MB-231 breast): > 100 µM | TGI (MDA-MB-435): > 100 µM | TGI (MDA-N): > 100 µM | TGI (MOLT-4 leukemia): > 100 µM | TGI (NCI-H226 lung): > 100 µM | TGI (NCI-H23 lung): > 100 µM | TGI (NCI-H460 lung): > 100 µM | TGI (NCI-H522 lung): > 100 µM | TGI (NCI/ADR-RES ovarian): > 100 µM | TGI (OVCAR-3 ovarian): > 100 µM | TGI (OVCAR-4 ovarian): > 100 µM | TGI (OVCAR-5 ovarian): > 100 µM | TGI (OVCAR-8 ovarian): > 100 µM | TGI (PC-3 prostate): > 100 µM | TGI (RPMI-8226 leukemia): > 100 µM | TGI (RXF 393 renal): > 100 µM | TGI (SF-268 CNS): > 100 µM | TGI (SF-295 CNS): > 100 µM | TGI (SF-539 CNS): > 100 µM | TGI (SK-MEL-28 melanoma): > 100 µM | TGI (SK-MEL-5 melanoma): 92.7 µM | TGI (SN12C renal): > 100 µM | TGI (SNB-19 CNS): > 100 µM | TGI (SNB-75 CNS): > 100 µM | TGI (SR leukemia): > 100 µM | TGI (SW-620 colon): > 100 µM | TGI (T-47D breast): > 100 µM | TGI (TK-10 renal): > 100 µM | TGI (U251 CNS): > 100 µM | TGI (UACC-257 melanoma): > 100 µM | TGI (UO-31 renal): > 100 µM
